Experiment [1] relates to Staphylococcus aureus ATCC 6538P. In words: Respiration assay (Example 1), electrochemical ferricyanide/DCIP mediator consumption. Type of experiment: cell-based. Particulars: for Slope data: n=2. As to the method: (§1) The ferricyanide solution is added so that the final ferricyanide concentrations is 50 mM.
(§2) The bacterial suspensions were adjusted to a MacFarland Standard of 5.0 (5.0×10sup.8 cfu/mL) or an optical density of 1.2 measured at 625 nm and cell growth was stopped by cooling the bacterial suspension for a minimum of 15 min in an ice-bath.

For experiment [2], the system named is E. faecalis. The experiment is described as above. The format is cell-based, Enterococcus faecalis. The conditions noted are these: n=2. As to the method:
as §1, §2

The test system of a further experiment is P. vulgaris ATCC6380. Description: Relative respiratory activity with 22 effectors (Example 3). Type of experiment: cell-based, Proteus vulgaris. Particulars: 5 μM DCIP, no effector = 100%, n = 20. The source says:
(§3) In this example, each microorganism is subjected to 22 different effector compounds in addition to control measurements. […] For each microorganism, duplicate measurements were made of 22 different effector compounds. In addition, duplicate measurements were made a control test containing no effector compound. One additional measurement was made of a control solution containing the microorganism with ferricyanide but without effector or DCIP.
(§4) In this example, each normalized data set containing duplicate measurements for each of 22 effector compounds is referenced to the duplicate internal controls to allow batch-to-batch comparison. The obtained signals of charge per unit electrode area for the duplicate control measurements are averaged and set at 100% respiratory cycle activity. […] The data set used to generate pattern recognition plots consists of 5 replicate batches (each batch containing duplicate measurements for each of 22 effector compounds) for each cell culture (10 strains). This is used to generate a 50 (columns)×22 (rows) matrix. The matrix is imported into MATLAB (Version 6.0). Factor analysis is performed using the MATLAB Chemometric Toolbox (Version 2.3) and involves the generation of reduced eigenvectors to determine the optimal number of factors, examination of the resulting residuals plots for randomness, and the generation of scores for the first four principle components.

Experiment [3] concerns E. faecalis. Described as above. Type of experiment: cell-based, Enterococcus faecalis. The conditions noted are these: 5 μM DCIP, no effector = 100%, n = 20.
Text: as §3, §4

Another experiment deals with E. aerogenes ATCC13048e. The description is as above. Type of experiment: cell-based, Enterobacter aerogenes. Particulars: 5 μM DCIP, no effector = 100%, n = 26.
Text: as §3, §4

In a further experiment the test system is E. coli B. The experiment is described as above. Type of experiment: cell-based.
Text: as §3, §4

In the next experiment the test system is E. coli HB101. Described as above. The format is cell-based. Particulars: 5 μM DCIP, no effector = 100%, n = 18.
Text: as §3, §4

A further experiment deals with E. coli JM105. The experiment is described as above. The format is cell-based. The conditions noted are these: 5 μM DCIP, no effector = 100%, n = 10.
Text: as §3, §4

For the next experiment, the system named is E. coli Neotype. The experiment is described as above. The format is cell-based. Particulars: 5 μM DCIP, no effector = 100%, n = 26.
Text: as §3, §4

The subject of a further experiment is P. aeruginosa. The description is as above. The format is cell-based, Pseudomonas aeruginosa. The conditions noted are these: 5 μM DCIP, no effector = 100%, n = 18.
Text: as §3, §4

The next experiment deals with S. aureus ATCC6538P. Described as above. The format is cell-based, Staphylococcus aureus. The conditions noted are these: 5 μM DCIP, no effector = 100%, n = 20.
Text: as §3, §4

A further experiment relates to S. cerevisiae. The experiment is described as above. The format is cell-based, Saccharomyces cerevisiae. The conditions noted are these: 5 μM DCIP, no effector = 100%, n = 10.
Text: as §3, §4

In the next experiment the test system is Gram-positive bacteria. Particulars: effector 1 mM instead of 1 mM glucose, relative to + DCIP.
Experiment [4] concerns Enterobacter aerogenes ATCC 13048e. Description: Respiration assay (Example 1), electrochemical ferricyanide/DCIP mediator consumption. Type of experiment: cell-based. Particulars: effector 10 mM. As to the method:
as §1, §2

From patent publication US20070099259A1, “ELECTROCHEMICAL ASSAY FOR THE IDENTIFICATION OF MICROORGANISMS” (RAPID LABORATORY MICROSYSTEMS INC., priority 2003, published 2007) come the findings set out here.

Bounds are passed on as bounds.

Description for Gram-positive bacteria: The following steps are used for each test: (1) preheating for a fixed time (4 min) and a fixed temperature (35° C.) a 150 μL aliquot of buffer containing 1 mM glucose (glc) with or without 5 μM DCIP; (2) this is followed by the addition of 50 μL of the bacterial suspension to the sample for a fixed time (10 min) and at a fixed temperature (35° C.); (3) this is followed by the addition of the mediator (50 μL of 0.4 M potassium ferricyanide) for a fixed time (10 min) and at a fixed temperature (35° C.); and (4) measurement of current at a fixed voltage difference (100 mV) between two platinum electrodes for a fixed time (120 sec) at a fixed temperature (35° C.). The final ferricyanide concentration in the sample prior to reaction with the microorganism is 40 mM.
In this configuration the assay uses two platinum electrodes each having a surface area of approximately 0.03 cm^2. The measured current depends on the concentration of the least-concentrated species of the redox-couple in solution. […] The magnitude of the measured current indicates the quantity of the reduced mediator present in the assay solution. The measured current is integrated over time to produce a plot of total charge against time. The change in total charge is measured between 30 and 120 seconds after the potential is applied. […]

Turning to `O=C[C@@H](O)[C@@H](O)[C@H](O)[C@H](O)CO` [D-mannose], the Slope data in [1] (substrate 1 mM) was 16.6 μC/min; in experiment [1] (substrate 10 mM) it was 14.0 μC/min; in [1] (substrate 50 mM), 15.1 μC/min; with E. faecalis [2] (substrate 1 mM), 17.8 μC/min; with E. faecalis [2] (substrate 10 mM), 19.6 μC/min; in the experiment on E. faecalis [2] (substrate 50 mM), 14.5 μC/min. The activity at 20000 µM in the experiment with P. vulgaris ATCC6380 (Proteus vulgaris, ATCC6380, effector 20 mM) turned out to be 250%; with E. faecalis [3] (Enterococcus faecalis, effector 20 mM), 654%; in the experiment with E. aerogenes ATCC13048e (Klebsiella aerogenes, ATCC13048E, effector 20 mM) it was 296%; in the experiment with E. coli B (Escherichia coli, effector 20 mM, 5 μM DCIP, no effector = 100%, n = 10), 152%; with E. coli HB101 (Escherichia coli, HB101, effector 20 mM), 222%; in the experiment with E. coli JM105 (Escherichia coli, JM105, effector 20 mM), 212%. Besides, the activity at 20000 µM in the experiment on E. coli Neotype (Escherichia coli, effector 20 mM) was determined as 139%; with P. aeruginosa (Pseudomonas aeruginosa, effector 20 mM), 108%; in the experiment on S. aureus ATCC6538P (Staphylococcus aureus, ATCC6538P, effector 20 mM) it was 262%; with S. cerevisiae (Saccharomyces cerevisiae, effector 20 mM) it was 125%. Moreover, in the experiment with Gram-positive bacteria, the “respiratory signals in the absence of 5 μM DCIP” value was “below 60%”.
For `CC(=O)C(=O)O` [Pyruvic acid], the slope in experiment [4] (5 μM DCIP, 50 mM ferricyanide, 35° C.) is 23.4 μC/min; in experiment [1] (effector 10 mM, 5 μM DCIP, 50 mM ferricyanide, 35° C.) it was 14.8 μC/min. For the same compound, the normalized slope turned out to be 13.7 μC/min*mm^2 in experiment [4] (area normalized) and 8.7 μC/min*mm^2 in experiment [1] (effector 10 mM, area normalized). Further, the relative activity in experiment [4] (buffer set as 100%) is recorded as 143%; in experiment [1] (effector 10 mM, buffer set as 100%), 164%. The activity at 10000 µM in the experiment with P. vulgaris ATCC6380 (Proteus vulgaris, ATCC6380, effector 10 mM, read-out: relative %-respiratory activity) worked out at 344%; in the experiment with E. faecalis [3] (Enterococcus faecalis, effector 10 mM, read-out: relative %-respiratory activity), 136%; in the experiment on E. aerogenes ATCC13048e (Klebsiella aerogenes, ATCC13048E, effector 10 mM, read-out: relative %-respiratory activity) it was 209%; with E. coli B (Escherichia coli, effector 10 mM, 5 μM DCIP, no effector = 100%, n = 10, read-out: relative %-respiratory activity), 120%; in the experiment on E. coli HB101 (Escherichia coli, HB101, effector 10 mM, read-out: relative %-respiratory activity), 169%; in the experiment with E. coli JM105 (Escherichia coli, JM105, effector 10 mM, read-out: relative %-respiratory activity), 249%. Besides, the activity at 10000 µM came to 126% in the experiment with E. coli Neotype (Escherichia coli, effector 10 mM, read-out: relative %-respiratory activity); 125% in the experiment on P. aeruginosa (Pseudomonas aeruginosa, effector 10 mM, read-out: relative %-respiratory activity); 313% with S. aureus ATCC6538P (Staphylococcus aureus, ATCC6538P, effector 10 mM, read-out: relative %-respiratory activity); 109% in the experiment on S. cerevisiae (Saccharomyces cerevisiae, effector 10 mM, read-out: relative %-respiratory activity).
For the compound `O=C(O)CCC(=O)O` [Succinate], the relative %-respiratory activity with P. vulgaris ATCC6380 (effector 3 mM) is 520%; in the experiment on E. faecalis [3] (effector 3 mM) it was 87%; in the experiment on E. aerogenes ATCC13048e (effector 3 mM) it was 187%; in the experiment on E. coli B, 134%; in the experiment with E. coli HB101 (effector 3 mM), 172%; with E. coli JM105 (effector 3 mM), 287%. In addition, the relative %-respiratory activity is on record as 127% with E. coli Neotype (effector 3 mM), 102% in the experiment on P. aeruginosa (effector 3 mM), 167% with S. aureus ATCC6538P (effector 3 mM) and 108% in the experiment on S. cerevisiae (effector 3 mM). Moreover, in the experiment with Gram-positive bacteria, the “respiratory signals in the absence of 5 μM DCIP” value is given as under 80%.
